In patent publication US20110245242A1, “Heterocyclically Substituted Anilinopyrimides” (Bayer CropScience AG, priority 2008, published 2011) one finds log p data, which are given here for 54 compounds.

Assay type in all cases: physicochemical
The nature of data set [1]: log P by LC-MS, method [b], acid range pH 2.7. As to conditions: pH 2.7. On the procedure: The log P values were measured in accordance with EEC Directive 79/831 Annex V.A8 by HPLC (High Performance Liquid Chromatography) on reversed-phase columns (C 18) using the methods below:
[b] The LC-MS determination in the acid range was carried out at pH 2.7 using the mobile phases 0.1% aqueous formic acid and acetonitrile (contains 0.1% formic acid)
linear gradient from 10% acetonitrile to 95% acetonitrile.

The nature of a further data set: physchem. As to conditions: pH 7.8. As for the experimental part: The log P values were measured in accordance with EEC Directive 79/831 Annex V.A8 by HPLC (High Performance Liquid Chromatography) on reversed-phase columns (C 18) using the methods below: [c] The LC-MS determination in the neutral range was carried out at pH 7.8 using the mobile phases 0.001 molar aqueous ammonium bicarbonate solution and acetonitrile linear gradient from 10% acetonitrile to 95% acetonitrile.

A short description of data set [2]: log P by HPLC on reversed-phase columns (C 18), method [a], acidic range pH 2.3. To be noted: pH 2.3. On the procedure:
The log P values were measured in accordance with EEC Directive 79/831 Annex V.A8 by HPLC (High Performance Liquid Chromatography) on reversed-phase columns (C 18) using the methods below: [a] The determination was carried out in the acidic range at pH 2.3 using the mobile phases 0.1% aqueous phosphoric acid and acetronitrile linear gradient from 10% acetonitrile to 95% acetronitrile.

Regarding `CC(C)C1COC(=O)N1c1cccc(Nc2ncc(C(F)(F)F)c(NC3CCC3)n2)c1` (centres unmarked) [Example 263], the log p is 3.47[b] in data set [1] and 3.85[c]; in the data set “physchem”. Turning to `CC1CC(=O)N(c2cccc(Nc3ncc(C(F)(F)F)c(NC4CCC4)n3)c2)C1=O` (centres unmarked) [Example 247], the results for the log p (in data set [1]; in “physchem”) were 2.67[b] and 3.04[c];, respectively. As to `CC(C)Nc1nc(Nc2cccc(N3CCC(C)C3=O)c2)ncc1Cl` (centres unmarked) [Example 185], the values for the log p (in data set [1]; in the data set “physchem”) were 1.82[b] and 3.07[c];, respectively. Take `CC1CC(=O)N(c2cccc(Nc3ncc(Br)c(NC4CC4)n3)c2)C1` (centres unmarked) [Example 99]: the log p in data set [1] is 1.85[b]; in the data set “physchem”, 2.79[c];. On to `CC1CC(=O)N(c2cccc(Nc3ncc(C(F)(F)F)c(NC4CC4)n3)c2)C1` (centres unmarked) [Example 240], for which the log p in data set [1] is 2.65[b]; in “physchem”, 3.06[c];.

With `CC1CN(c2cccc(Nc3ncc(Cl)c(NC4CC4)n3)c2)C(=O)O1` (centres unmarked) [Example 264], the log p in data set [1] is 1.65[b]; in “physchem”, 2.56[c];. For `CC1CCC(=O)N1c1cccc(Nc2ncc(C(F)(F)F)c(NC3CC3)n2)c1` (centres unmarked) [Example 243], in that order: 2.41[b] and 2.73[c];. Take `C[C@H]1CCN(c2cccc(Nc3ncc(Cl)c(NC4CC4)n3)c2)C1=O` [Example 124]: the log p in data set [1] was 2.86[b]; in data set [2] it was 2.86[a];. As for `CCNc1nc(Nc2cccc(N3CCCC3=O)c2)ncc1Cl` [Example 204], the log p is 1.29[b] in data set [1] and 2.24[c]; in “physchem”. In the case of `CN(c1cccc(N2CCCC2=O)c1)c1ncc(Cl)c(N(C)C2CC2)n1` [Example 325], the log p is 1.98[b] in data set [1] and 3.66[c]; in “physchem”.

Turning to `CCOC(=O)[C@@H]1CCC(=O)N1c1cccc(Nc2ncc(Br)c(NC3CC3)n2)c1` [Example 191], in “physchem”, the log p was 2.65[c].

For `CC1CC1Nc1nc(Nc2cccc(N3CCCC3=O)c2)ncc1Br` (centres unmarked) [Example 229], the log p in data set [1] was 1.84[b]; in “physchem” it was 2.82[c];. Consider `CSCC(C)(C)Nc1nc(Nc2ccc(N3CCOC3=O)cc2)ncc1Cl` [Example 40], for which the log p in “physchem” was 3.09[c].

Regarding `CC1CC(Nc2nc(Nc3cccc(N4C(=O)CC(C)C4=O)c3)ncc2Br)C1` (centres unmarked) [Example 281], the log p in data set [1] is 2.23[b]; in “physchem”, 2.98[c];. For `CC1CC(Nc2nc(Nc3cccc(N4CCOC4=O)c3)ncc2Cl)C1` (centres unmarked) [Example 256], in “physchem”, the log p is 2.99[c]. On to `CC(C)Nc1nc(Nc2ccc(F)c(N3CCCC3=O)c2)ncc1Cl` [Example 197], for which the log p was 1.55[b] in data set [1] and 2.55[c]; in “physchem”.

Turning to `COc1ccc(Nc2ncc(Cl)c(NC3CC3)n2)cc1N1CCCC1=O` [Example 328], in “physchem”, the log p was 2.18[c];.

For the compound `CC(C)Nc1nc(Nc2cccc(N3C(=O)OCC3C)c2)ncc1Br` (centres unmarked) [Example 262], the log p in “physchem” was 2.83[c];. Take `CC1CCN(c2cccc(Nc3ncc(Cl)c(N(C)C4CC4)n3)c2)C1=O` (centres unmarked) [Example 186]: the log p in data set [1] is 2.66[b]; in the data set “physchem” it was 3.48[c];. Take `CC1COC(=O)N1c1cccc(Nc2ncc(C(F)(F)F)c(NC3CC3)n2)c1` (centres unmarked) [Example 261]: in “physchem”, the log p was 2.7[c];.

Consider `CC1CC1Nc1nc(Nc2cccc(N3C(=O)CC(C)(C)C3=O)c2)ncc1Br` (centres unmarked) [Example 295], for which the log p is 2.2[b] in data set [1] and 3.11[c]; in “physchem”. Regarding `CCN(C)c1nc(Nc2cccc(N3CCCC3=O)c2)ncc1Cl` [Example 207], the log p in data set [1] was 1.79[b]; in the data set “physchem”, 2.91[c];. Taken in the same sequence, the figures for `COc1cc(Nc2ncc(C(F)(F)F)c(NC3CC3)n2)cc(N2CCCC2=O)c1` [Example 326] were 2.47[b] and 2.8[c];. For `CC1CCN(c2cccc(Nc3ncc(Cl)c(NC4CC4C)n3)c2)C1=O` (centres unmarked) [Example 241], in that order: 2.06[b] and 3.17[c];. For `O=C1CCCN1c1cccc(Nc2ncc(C(F)(F)F)c(NCC(F)(F)F)n2)c1` [Example 306], in that order: 2.6[b] and 2.66[c];.

As to `CC1CC1Nc1nc(Nc2cccc(N3C(=O)CC(C)(C)C3=O)c2)ncc1Cl` (centres unmarked) [Example 246], the log p was 2.09[b] in data set [1] and 2.92[c]; in “physchem”. For `CCC1CC(C)C(=O)N1c1cccc(Nc2ncc(Br)c(NCC3CC3)n2)c1` (centres unmarked) [Example 209], in that order: 2.41[b] and 3.69[c];. On to `CCC1CC(C)C(=O)N1c1cccc(Nc2ncc(Cl)c(NCC3CC3)n2)c1` (centres unmarked) [Example 212], for which the results for the log p (in data set [1]; in the data set “physchem”) were 2.33[b] and 3.54[c];, respectively. Consider `CCOC(=O)[C@@H]1CCC(=O)N1c1cccc(Nc2ncc(C(F)(F)F)c(NC3CC3)n2)c1` [Example 193], for which the log p in data set [1] is 2.56[b]; in “physchem”, 2.82[c];. For `O=C1CCC(C(F)(F)F)N1c1cccc(Nc2ncc(Cl)c(NC3CC3)n2)c1` (centres unmarked) [Example 260], in that order: 1.89[b] and 2.67[c];. Turning to `CC1CCN(c2cccc(Nc3ncc(C(F)(F)F)c(NC4CC4)n3)c2)C1=O` (centres unmarked) [Example 292], the results for the log p (in data set [1]; in the data set “physchem”) were 2.65[b] and 3.05[c];, respectively. For `O=C1CCCN1c1cccc(Nc2ncc(Cl)c(N3CCSCC3)n2)c1` [Example 228], in that order: 2.63[b] and 3.01[c];. Take `CC1CC1Nc1nc(Nc2cccc(N3C(=O)OCC3C)c2)ncc1Br` (centres unmarked) [Example 239]: the log p in data set [1] is 1.83[b]; in “physchem”, 2.9[c];. Take `O=C1CCC(C(F)(F)F)N1c1cccc(Nc2ncc(C(F)(F)F)c(NC3CC3)n2)c1` (centres unmarked) [Example 314]: the log p in data set [1] is 2.74[b]; in the data set “physchem”, 2.98[c];. `CC(C)C1COC(=O)N1c1cccc(Nc2ncc(Br)c(NC3CCC3)n2)c1` (centres unmarked) [Example 248]: the log p in data set [1] was 2.54[b]; in the data set “physchem”, 3.71[c];. Taken in the same sequence, the figures for `COC(=O)N(c1cccc(N2CCCC2=O)c1)c1ncc(C(F)(F)F)c(NC2CC2)n1` [Example 309] were 2.25[b] and 2.37[c];. For `CC1CC1Nc1nc(Nc2ccc(N3CCOC3=O)cc2)ncc1Br` (centres unmarked) [Example 308], in that order: 1.97[b] and 2.91[c];. As for `CC1CCC(=O)N1c1cccc(Nc2ncc(Cl)c(NC3CC3)n2)c1` (centres unmarked) [Example 126], the log p in data set [1] is 2.59[b]; in data set [2], 2.59[a];. Take `CC(C)C1COC(=O)N1c1cccc(Nc2ncc(C(F)(F)F)c(NC3CC3)n2)c1` (centres unmarked) [Example 249]: the results for the log p (in data set [1]; in the data set “physchem”) were 3.04[b] and 3.34[c];, respectively. Regarding `O=C1CCCN1c1cccc(Nc2ncc(C(F)(F)F)c(NCC(F)(F)C(F)(F)F)n2)c1` [Example 218], the log p in data set [1] is 3.1[b]; in “physchem” it was 3.07[c];. For `CC1CCN(c2cccc(Nc3ncc(C(F)(F)F)c(NC4CCC4)n3)c2)C1=O` (centres unmarked) [Example 251], in that order: 3.16[b] and 3.67[c];. Taken in the same sequence, the figures for `CC1CN(c2cccc(Nc3ncc(Br)c(NC4CCC4)n3)c2)C(=O)O1` (centres unmarked) [Example 287] were 2.04[b] and 3.17[c];. In the case of `O=C1CCC(=O)N1Cc1cccc(Nc2ncc(Cl)c(NC3CC3)n2)c1` [Example 235], the log p in the data set “physchem” was 2.32[c];.

As for `COc1cc(Nc2ncc(Cl)c(NC3CC3)n2)cc(N2CCCC2=O)c1` [Example 318], the log p in data set [1] is 1.64[b]; in “physchem”, 2.46[c];. With `CC1CC1N(C)c1nc(Nc2cccc(N3CCCC3=O)c2)ncc1Cl` (centres unmarked) [Example 304], the log p was 2.66[b] in data set [1] and 3.53[c]; in the data set “physchem”. For the compound `COCC(C)Nc1nc(Nc2ccc(N3CCCC3=O)cc2)ncc1Cl` (centres unmarked) [Example 1], the figures for the log p in data set [1] and in data set [2] were 1.51[b] and 1.51[a];, respectively. Regarding `CC1CC(C)N(c2cccc(Nc3ncc(C(F)(F)F)c(NC4CCC4)n3)c2)C1=O` (centres unmarked) [Example 289], the log p in data set [1] is 3.27[b]; in the data set “physchem”, 3.74[c];. Consider `O=C1CCCN1c1cccc(Nc2ncc(C(F)(F)F)c(NCCF)n2)c1` [Example 302], for which the log p in data set [1] is 2.05[b]; in “physchem”, 2.67[c];. Taken in the same sequence, the figures for `C[C@H]1COC(=O)N1c1cccc(Nc2ncc(Cl)c(N3CCC3)n2)c1` [Example 230] were 1.58[b] and 2.75[c];.

In the case of `CC1CC(Nc2nc(Nc3cccc(N4C(=O)CCC4C)c3)ncc2Cl)C1` (centres unmarked) [Example 253], the log p in data set [1] was 2.15[b]; in “physchem”, 3.16[c];. As to `CC(C)C1COC(=O)N1c1cccc(Nc2ncc(Br)c(NC3CC3)n2)c1` (centres unmarked) [Example 250], the log p in data set [1] was 2.22[b]; in the data set “physchem” it was 3.18[c];. For `COCC(C)Nc1nc(Nc2cccc(N3C(=O)OCC3C)c2)ncc1Cl` (centres unmarked) [Example 118], the figures for the log p in data set [1] and in data set [2] were 1.6[b] and 1.6[a];, respectively. `C[C@@H]1CCN(c2cccc(Nc3ncc(Cl)c(NC4CC4)n3)c2)C1=O` [Example 123]: the log p in data set [1] is 2.86[b]; in data set [2], 2.86[a];. Turning to `CC1CCC(=O)N1c1cccc(Nc2ncc(Cl)c(NC3CC3)n2)c1` (centres unmarked) [Example 30], the log p was 1.6[b] in data set [1] and 1.6[a]; in data set [2].
